US9708314B2, “Heterocyclic amide compound” (NISSAN CHEMICAL INDUSTRIES, LTD., priority 2013, dated 2017)

Key:
Format in all cases: in vivo
[1] = test system: directly sowed Oryza sativa; assay: Test Example 4: effect on crop by application to foliage (diluvial soil, plastic box); conditions: for b: effect on crop, directly sowed Oryza sativa: application to foliage, application herbicide amount 320 g/ha; for b (directly sowed Oryza sativa) effect on crop grade: Application herbicide amount 320 g/ha
Method in brief: (§1)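 Greenhouse plants (25° C. to 30° C., 14 d, diluvial soil) receive a foliar spray of water-diluted emulsifiable formulation at defined g/ha. Grading after 3 weeks uses a six-step herbicidal-ratio scale, with 4 covering 70% to <90% and 1 covering 5% to <20%.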

[2] = test system: Brassica campestris L.; assay: as above; conditions: for g: effect on crop, Brassica campestris L.: application to foliage, application herbicide amount 320 g/ha; for g (Brassica campestris L.) effect on crop grade: foliage application
Method in brief: as §1

[3] = test system: Beta vulgaris ssp. vulgaris; assay: as above; conditions: for f: effect on crop, Beta vulgaris ssp. vulgaris: application to foliage, application herbicide amount 320 g/ha; for f (Beta vulgaris ssp. vulgaris) effect on crop grade: foliage application
Method in brief: as §1

[4] = test system: Zea mays; assay: as above; conditions: for c: effect on crop, Zea mays: application to foliage, application herbicide amount 320 g/ha; for c (Zea mays) effect on crop grade: Application herbicide amount 320 g/ha
Method in brief: as §1

[5] = test system: Triticum aestivum; assay: as above; conditions: for e: effect on crop, Triticum aestivum: application to foliage, application herbicide amount 320 g/ha; for e (Triticum aestivum) effect on crop grade: foliage application
Method in brief: as §1

[6] = test system: transplanted Oryza sativa; assay: Test Example 1: effect on crop, application before weed generation in submerged conditions; conditions: Application herbicide amount 320 g/ha; Seventeenth Table
Method in brief: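 Water-diluted emulsion formulation is applied onto flood water (4 cm deep) covering alluvial soil on the day weed seeds are sown, after transplanting 2.5 leaf stage rice. Rates are expressed per hectare. Injury or control is graded 0–5 three weeks later.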

[7] = test system: Monochoria vaginalis; assay: Test Example 2: herbicidal activity, application during weed generation in submerged conditions; conditions: Eighteenth Table; application herbicide amount 320 g/ha
Method in brief: (§2)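 Seeds were sown together in alluvial soil kept under 4 cm of water and grown at 25 °C to 30 °C. Once plants reached the one- to two-leaf stage, the diluted emulsion was applied to the water surface at a predetermined g/ha amount, and effects were rated 0–5 after three weeks.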

[8] = test system: Echinochloa oryzacola Vasing.; assay: as above; conditions: Eighteenth Table; application herbicide amount 320 g/ha
Method in brief: as §2

[9] = test system: Scirpus juncoides; assay: as above; conditions: Eighteenth Table; application herbicide amount 320 g/ha
Method in brief: as §2

[10] = Application herbicide amount 320 g/ha

SMILES	b: effect on crop, directly sowed Oryza sativa [1]	g: effect on crop, Brassica campestris L. [2]	f: effect on crop, Beta vulgaris ssp. vulgaris [3]	c: effect on crop, Zea mays [4]	e: effect on crop, Triticum aestivum [5]	a: transplanted Oryza sativa (effect on crop grade) [6]	C (Monochoria vaginalis) herbicidal ratio grade [7]	A (Echinochloa oryzicola Vasing.) herbicidal ratio grade [8]	B (Scirpus juncoides) herbicidal ratio grade [9]	b (directly sowed Oryza sativa) effect on crop grade ([1]; foliage application)	g (Brassica campestris L.) effect on crop grade [2, 10]	f (Beta vulgaris ssp. vulgaris) effect on crop grade [3, 10]	c (Zea mays) effect on crop grade ([4]; foliage application)	e (Triticum aestivum) effect on crop grade [5, 10]	d (directly sowed Oryza sativa) effect on crop grade ([1]; foliage application, 320 g/ha)	g (Brassica campestris L.) effect on crop grade ([2]; 320 g/ha)	f (Beta vulgaris ssp. vulgaris) effect on crop grade ([3]; 320 g/ha)	b (Zea mays) effect on crop grade ([4]; foliage application, 320 g/ha)	e (Triticum aestivum) effect on crop grade ([5]; 320 g/ha)
CCSc1nnc2c(C(=O)Nc3nnnn3C)ccc(C(F)(F)F)n12 [2-024]	5 (Herbicidal ratio of 90% or more (almost completely withered))	5 (Herbicidal ratio of 90% or more (almost completely withered))	5 (Herbicidal ratio of 90% or more (almost completely withered))	5 (Herbicidal ratio of 90% or more (almost completely withered))	4 (Herbicidal ratio of 70% or more and less than 90%)	5 (Herbicidal ratio of 90% or more (almost completely withered))	4 (Herbicidal ratio of 70% or more and less than 90%)	5 (Herbicidal ratio of 90% or more (almost completely withered))	4 (Herbicidal ratio of 70% or more and less than 90%)										
COc1ccc(CSc2nnc3c(C(=O)Nc4nnc(C)o4)ccc(C(F)(F)F)n23)cc1 [1-114]						0 (Herbicidal ratio of 5% or less (almost no effect))	0 (Herbicidal ratio of 5% or less (almost no effect))	0 (Herbicidal ratio of 5% or less (almost no effect))	1 (Herbicidal ratio of 5% or more and less than 20%)	0 (Herbicidal ratio of 5% or less (almost no effect))	0 (Herbicidal ratio of 5% or less (almost no effect))	4 (Herbicidal ratio of 70% or more and less than 90%)	0 (Herbicidal ratio of 5% or less (almost no effect))	0 (Herbicidal ratio of 5% or less (almost no effect))					
CCOCc1nnc2c(C(=O)Nc3nnnn3C)ccc(C(F)(F)F)n12 [2-026]	5 (Herbicidal ratio of 90% or more (almost completely withered))	5 (Herbicidal ratio of 90% or more (almost completely withered))	5 (Herbicidal ratio of 90% or more (almost completely withered))	2 (Herbicidal ratio of 20% or more and less than 40%)	3 (Herbicidal ratio of 40% or more and less than 70%)	4 (Herbicidal ratio of 70% or more and less than 90%)	4 (Herbicidal ratio of 70% or more and less than 90%)	5 (Herbicidal ratio of 90% or more (almost completely withered))	5 (Herbicidal ratio of 90% or more (almost completely withered))										
CC[S+]([O-])c1nnc2c(C(=O)Nc3nnnn3C)ccc(C(F)(F)F)n12 (stereo not drawn) [2-031]						5 (Herbicidal ratio of 90% or more (almost completely withered))	4 (Herbicidal ratio of 70% or more and less than 90%)	5 (Herbicidal ratio of 90% or more (almost completely withered))	4 (Herbicidal ratio of 70% or more and less than 90%)						5 (Herbicidal ratio of 90% or more (almost completely withered))	5 (Herbicidal ratio of 90% or more (almost completely withered))	5 (Herbicidal ratio of 90% or more (almost completely withered))	5 (Herbicidal ratio of 90% or more (almost completely withered))	5 (Herbicidal ratio of 90% or more (almost completely withered))
Cn1nnnc1NC(=O)c1ccc(C(F)(F)F)n2c(COc3ccccc3)nnc12 [2-020]	2 (Herbicidal ratio of 20% or more and less than 40%)	3 (Herbicidal ratio of 40% or more and less than 70%)	5 (Herbicidal ratio of 90% or more (almost completely withered))	0 (Herbicidal ratio of 5% or less (almost no effect))	1 (Herbicidal ratio of 5% or more and less than 20%)	1 (Herbicidal ratio of 5% or more and less than 20%)	0 (Herbicidal ratio of 5% or less (almost no effect))	2 (Herbicidal ratio of 20% or more and less than 40%)	2 (Herbicidal ratio of 20% or more and less than 40%)										
Cn1nnnc1NC(=O)c1ccc(C(F)(F)F)n2c(-c3ccc(Cl)cc3)nnc12 [2-012]	5 (Herbicidal ratio of 90% or more (almost completely withered))	4 (Herbicidal ratio of 70% or more and less than 90%)	5 (Herbicidal ratio of 90% or more (almost completely withered))	3 (Herbicidal ratio of 40% or more and less than 70%)	4 (Herbicidal ratio of 70% or more and less than 90%)	1 (Herbicidal ratio of 5% or more and less than 20%)	5 (Herbicidal ratio of 90% or more (almost completely withered))	4 (Herbicidal ratio of 70% or more and less than 90%)	5 (Herbicidal ratio of 90% or more (almost completely withered))										
O=C(Nc1nnco1)c1ccc(C(F)(F)F)n2c(N3CCOCC3)nnc12 [1-110]						4 (Herbicidal ratio of 70% or more and less than 90%)	4 (Herbicidal ratio of 70% or more and less than 90%)	4 (Herbicidal ratio of 70% or more and less than 90%)	3 (Herbicidal ratio of 40% or more and less than 70%)	4 (Herbicidal ratio of 70% or more and less than 90%)	5 (Herbicidal ratio of 90% or more (almost completely withered))	5 (Herbicidal ratio of 90% or more (almost completely withered))	4 (Herbicidal ratio of 70% or more and less than 90%)	3 (Herbicidal ratio of 40% or more and less than 70%)					
COC1CCC(c2nnc3c(C(=O)Nc4nnc(C)o4)ccc(C(F)(F)F)n23)CC1 (stereo not drawn) [1-169]	0 (Herbicidal ratio of 5% or less (almost no effect))	0 (Herbicidal ratio of 5% or less (almost no effect))	5 (Herbicidal ratio of 90% or more (almost completely withered))	1 (Herbicidal ratio of 5% or more and less than 20%)	1 (Herbicidal ratio of 5% or more and less than 20%)	0 (Herbicidal ratio of 5% or less (almost no effect))	4 (Herbicidal ratio of 70% or more and less than 90%)	3 (Herbicidal ratio of 40% or more and less than 70%)	4 (Herbicidal ratio of 70% or more and less than 90%)										
COc1ccc(-c2nnc3c(C(=O)Nc4nnco4)ccc(C(F)(F)F)n23)cc1 [1-149]						3 (Herbicidal ratio of 40% or more and less than 70%)	2 (Herbicidal ratio of 20% or more and less than 40%)	3 (Herbicidal ratio of 40% or more and less than 70%)	3 (Herbicidal ratio of 40% or more and less than 70%)	1 (Herbicidal ratio of 5% or more and less than 20%)	5 (Herbicidal ratio of 90% or more (almost completely withered))	5 (Herbicidal ratio of 90% or more (almost completely withered))	0 (Herbicidal ratio of 5% or less (almost no effect))	0 (Herbicidal ratio of 5% or less (almost no effect))					
